Results published in patent publication US20230082989A1, “DEVICES AND METHODS FOR TREATING CANCER AND CARDIAC WASTING” (Nazzano Devices Limited, priority 2020, published 2023).

Key:
Format in all cases: in vivo, human
[1] = system: patients with advanced cancer; assay: Quality of life by Kansas City Cardiomyopathy Questionnaire (KCCQ), ivabradine study
Text: N=4, LVEF>50%. A 5 unit increase was considered a clinically meaningful change. […] The KCCQ score range is 0-100, with higher scores indicating better QoL, and improvements of ≥5 indicated clinically important changes.
(§1) In this study 4 cancer patients with no known heart failure and with normal left ventricular function (LEF>50%) were studied. They all had histologically confirmed diagnoses of cancer (see table 1), and all suffered poor quality of life, with three showing a Karnofksy performance score of 70-80% (indicating an inability to carry on normal activity or to do active work) and one showing a Karnofksy performance score of 50-60% (indicating a need for considerable assistance and frequent medical care). […] All were given Ivabradine at a starting dose of 5 mg twice a day. Heart rate was reduced in all patients from 104.5±10.4 bpm to 77.0±10.9 bpm. […] The questionnaires are the Minnesota Living with Heart Failure Questionnaire (MLHFQ) (see FIG. 15) and the Kansas City Cardiomyopathy Questionnaire (KCCQ) (see FIG. 14). In the […] indicate a better quality of life and in the MLWHFQ lower scores indicate a better quality of life. The two figures show the clinically important improvement in symptoms and quality of life achieved in these patient by the use of the heart failure drug Ivabradine.

[2] = system: patients with advanced cancer; assay: Quality of life by Minnesota Living with Heart Failure Questionnaire (MLHFQ), ivabradine study; conditions: N=4, LVEF>50%; total score range 0-105, lower = better QoL, <24 good QoL
Text: N=4, LVEF>50%. […] MLHFQ has a total score range of 0-105. A lower score indicated a better QoL, with a score of <24 indicating good QoL, scores from 24 to […] indicating moderately impaired QoL, scores >45 indicating low QoL.
as §1

[3] = system: patients with advanced cancer; assay: Prospective study of ivabradine in advanced cancer patients: heart rate; conditions: 4 cancer patients, no known heart failure, LVEF>50%, heart rate >70 bpm; Ivabradine starting dose 5 mg twice a day; reduced from 104.5±10.4 bpm
Text: In this study an effect of a use of a heart drug in advanced cancer was studied. In some cases, a heart drug can comprise ivabradine. In some cases, ivabradine can be a selective antagonist of myocardial If (funny) channels. […] In some cases, ivabradine can provide pure heart rate reduction, reducing a diastolic depolarization slope, without altering other cardiac and hemodynamic parameters. In some cases, ivabradine can be effective for a treatment of an ischemic heart disease. In some cases, ivabradine can reduce episodes of both symptomatic angina pectoris and myocardial ischemia, and in heart failure where it can reduce mortality and morbidity. In some cases, it may only be approved or recommended for treatment of these two conditions. In some cases, ivabradine may have never been recommended for a treatment of a cancer patient. Disclosed herein in some embodiments, are methods in which ivabradine can be administered for a treatment of a cancer patient.
In this study 4 cancer patients with no known heart failure and with normal left ventricular function (LEF>50%) were studied. […]

COc1cc2c(cc1OC)CC(=O)N(CCCN(C)C[C@H]1Cc3cc(OC)c(OC)cc31)CC2 [Ivabradine]
Symptoms (breathlessness, fatigue) by MLHFQ and KCCQ symptom scores ([1]; 4 cancer patients, addition of ivabradine 5 mg twice a day starting dose): importantly improved symptoms | KCCQ score improvement from baseline to follow up ([1]; N=4, LVEF>50%, score range 0-100, higher = better QoL, improvement ≥5 clinically important): ≥ 5 | MLHFQ score, baseline to follow-up [2]: improvements from baseline to follow-up, with good QoL at follow-up | Heart rate on ivabradine [3]: 77.0±10.9 bpm
